Data reported in ChEMBL document CHEMBL1201862, “PubChem BioAssay data set” (2004).
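Interpolation was linear, between the two tested concentrations surrounding the appropriate level; five concentrations were tested over 48 hours in 96-well plates. The concentration for 50% growth inhibition is given as GI50.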 Activity calls are given as the source filed them. Cut-off read from the data, not from the text of the source: active = GI50 up to about 1.1 µM and inactive = higher.

Columns and labels:
Test in all cases: DTP human tumour cell line panel, 48 h
A549 = tested on: A549
SF-295 = tested on: SF-295
UO-31 = tested on: UO-31
RXF 393 = tested on: RXF 393
SR = tested on: SR
CAKI-1 = tested on: CAKI-1
SN12C = tested on: SN12C
SK-MEL-28 = tested on: SK-MEL-28
MDA-MB-231 = tested on: MDA-MB-231
T47D = tested on: T47D
NCI/ADR-RES = tested on: NCI/ADR-RES
NCI-H226 = tested on: NCI-H226
COLO 205 = tested on: COLO 205
HT-29 = tested on: HT-29
M14 = tested on: M14
UACC-257 = tested on: UACC-257
OVCAR-8 = tested on: OVCAR-8
HL-60 = tested on: HL-60
MOLT-4 = tested on: MOLT-4
Hs-578T = tested on: Hs-578T
OVCAR-4 = tested on: OVCAR-4
U-251 = tested on: U-251
SK-OV-3 = tested on: SK-OV-3
SK-MEL-5 = tested on: SK-MEL-5
LOX IMVI = tested on: LOX IMVI
CCRF-CEM = tested on: CCRF-CEM
HCT-116 = tested on: HCT-116
OVCAR-5 = tested on: OVCAR-5
K562 = tested on: K562
SW-620 = tested on: SW-620
SF-268 = tested on: SF-268
RPMI-8226 = tested on: RPMI-8226
EKVX = tested on: EKVX
SNB-19 = tested on: SNB-19
Malme-3M = tested on: Malme-3M
KM12 = tested on: KM12
ACHN = tested on: ACHN
SF-539 = tested on: SF-539
NCI-H522 = tested on: NCI-H522
786-0 = tested on: 786-0
MCF7 = tested on: MCF7
HOP-62 = tested on: HOP-62
PC-3 = tested on: PC-3
TK-10 = tested on: TK-10
OVCAR-3 = tested on: OVCAR-3
NCI-H23 = tested on: NCI-H23
HCT-15 = tested on: HCT-15
UACC-62 = tested on: UACC-62
HCC 2998 = tested on: HCC 2998
SK-MEL-2 = tested on: SK-MEL-2
MDA-N = tested on: MDA-N
NCI-H460 = tested on: NCI-H460
BT-549 = tested on: BT-549
HOP-92 = tested on: HOP-92
IGROV-1 = tested on: IGROV-1
SNB-75 = tested on: SNB-75
DU-145 = tested on: DU-145
MDA-MB-435 = tested on: MDA-MB-435
A498 = tested on: A498

In the case of `O=C1C([N-]S(=O)(=O)c2ccccc2)=C([n+]2ccc(Cc3ccccc3)cc2)C(=O)c2ccccc21`, the GI50 (A549) is reported as 1.92 µM (inactive), the GI50 (SF-295) is reported as 1.79 µM (inactive) and the GI50 (UO-31) is reported as 2.13 µM (inactive). For the same compound, the GI50 (RXF 393) was 2.31 µM (inactive), the GI50 (SR) was 2.59 µM (inactive) and the GI50 (CAKI-1) was 1.73 µM (inactive). For the same compound, the GI50 (SN12C) was 1.7 µM (inactive), the GI50 (SK-MEL-28) was 0.859 µM (active) and the GI50 (MDA-MB-231) was 2.56 µM (inactive). For the same compound, the GI50 (T47D) was 3.46 µM (inactive), the GI50 (NCI/ADR-RES) was 2.83 µM (inactive) and the GI50 (NCI-H226) was 1.67 µM (inactive). For the same compound, the GI50 (COLO 205) was 0.0644 µM (active), the GI50 (HT-29) was 0.263 µM (active) and the GI50 (M14) was 1.32 µM (inactive). For the same compound, the GI50 (UACC-257) was 1.22 µM (inactive), the GI50 (OVCAR-8) was 2.04 µM (inactive) and the GI50 (HL-60) was 1.38 µM (inactive). For the same compound, the GI50 (MOLT-4) was 1.81 µM (inactive), the GI50 (Hs-578T) was 2.19 µM (inactive) and the GI50 (OVCAR-4) was 1.56 µM (inactive). For the same compound, the GI50 (U-251) was 1.85 µM (inactive), the GI50 (SK-OV-3) was 6.12 µM (inactive) and the GI50 (SK-MEL-5) was 0.145 µM (active). The GI50 (LOX IMVI) was 0.424 µM (active), the GI50 (CCRF-CEM) was 29.7 µM (inactive) and the GI50 (HCT-116) was 0.91 µM (active). The GI50 (OVCAR-5) was 2.03 µM (inactive), the GI50 (K562) was 0.359 µM (active) and the GI50 (SW-620) was 0.641 µM (active). For the same compound, the GI50 (SF-268) was 1.71 µM (inactive), the GI50 (RPMI-8226) was 1.65 µM (inactive) and the GI50 (EKVX) was 1.76 µM (inactive). The GI50 (SNB-19) was 1.71 µM (inactive), the GI50 (Malme-3M) was 0.376 µM (active) and the GI50 (KM12) was 1.89 µM (inactive). The GI50 (ACHN) was 1.79 µM (inactive), the GI50 (SF-539) was 1.79 µM (inactive) and the GI50 (NCI-H522) was 0.614 µM (active). The GI50 (786-0) was 1.73 µM (inactive), the GI50 (MCF7) was 0.435 µM (active) and the GI50 (HOP-62) was 1.75 µM (inactive). The GI50 (PC-3) was 2.21 µM (inactive), the GI50 (TK-10) was 1.66 µM (inactive) and the GI50 (OVCAR-3) was 0.142 µM (active). For the same compound, the GI50 (NCI-H23) was 0.284 µM (active), the GI50 (HCT-15) was 1.69 µM and the GI50 (UACC-62) was 1.15 µM (inactive). For the same compound, the GI50 (HCC 2998) was 1.2 µM (inactive), the GI50 (SK-MEL-2) was 1.5 µM (inactive) and the GI50 (MDA-N) was 0.191 µM (active). The GI50 (NCI-H460) was 0.535 µM (active), the GI50 (BT-549) was 1.36 µM (inactive) and the GI50 (HOP-92) was 2.72 µM (inactive). The GI50 (IGROV-1) was 1.79 µM (inactive), the GI50 (SNB-75) was 1.31 µM (inactive) and the GI50 (DU-145) was 1.53 µM (inactive). For the same compound, the GI50 (MDA-MB-435) was 0.18 µM (active).

`C#CCOC(=O)c1ccccc1OC(C)=O` was tested, and the GI50 (SF-295) was > 100 µM (inactive), the GI50 (UO-31) was > 100 µM (inactive) and the GI50 (RXF 393) was > 100 µM (inactive). For the same compound, the GI50 (SR) was > 100 µM (inactive), the GI50 (CAKI-1) was > 100 µM (inactive) and the GI50 (SN12C) was > 100 µM (inactive). The GI50 (MDA-MB-231) was > 100 µM (inactive), the GI50 (T47D) was > 100 µM (inactive) and the GI50 (NCI/ADR-RES) was > 100 µM (inactive). For the same compound, the GI50 (NCI-H226) was > 100 µM (inactive), the GI50 (COLO 205) was > 100 µM (inactive) and the GI50 (M14) was > 100 µM (inactive). For the same compound, the GI50 (UACC-257) was > 100 µM (inactive), the GI50 (OVCAR-8) was > 100 µM (inactive) and the GI50 (HL-60) was > 100 µM (inactive). For the same compound, the GI50 (MOLT-4) was > 100 µM (inactive), the GI50 (Hs-578T) was > 100 µM (inactive) and the GI50 (OVCAR-4) was > 100 µM (inactive). For the same compound, the GI50 (A498) was > 100 µM (inactive), the GI50 (U-251) was > 100 µM (inactive) and the GI50 (SK-OV-3) was > 100 µM (inactive). The GI50 (SK-MEL-5) was > 100 µM (inactive), the GI50 (LOX IMVI) was > 100 µM (inactive) and the GI50 (CCRF-CEM) was > 100 µM (inactive). For the same compound, the GI50 (HCT-116) was > 100 µM (inactive), the GI50 (OVCAR-5) was > 100 µM (inactive) and the GI50 (K562) was > 100 µM (inactive). For the same compound, the GI50 (SW-620) was > 100 µM (inactive), the GI50 (SF-268) was > 100 µM (inactive) and the GI50 (RPMI-8226) was > 100 µM (inactive). For the same compound, the GI50 (EKVX) was > 100 µM (inactive), the GI50 (SNB-19) was > 100 µM (inactive) and the GI50 (KM12) was > 100 µM (inactive). For the same compound, the GI50 (ACHN) was > 100 µM (inactive), the GI50 (SF-539) was > 100 µM (inactive) and the GI50 (NCI-H522) was > 100 µM (inactive). The GI50 (786-0) was > 100 µM (inactive), the GI50 (MCF7) was > 100 µM (inactive) and the GI50 (HOP-62) was > 100 µM (inactive). The GI50 (PC-3) was > 100 µM (inactive), the GI50 (TK-10) was > 100 µM (inactive) and the GI50 (NCI-H23) was > 100 µM (inactive). The GI50 (HCT-15) was greater than 100 µM, the GI50 (UACC-62) was > 100 µM (inactive) and the GI50 (SK-MEL-2) was > 100 µM (inactive). The GI50 (MDA-N) was > 100 µM (inactive), the GI50 (NCI-H460) was > 100 µM (inactive) and the GI50 (BT-549) was > 100 µM (inactive). The GI50 (HOP-92) was > 100 µM (inactive), the GI50 (IGROV-1) was > 100 µM (inactive) and the GI50 (SNB-75) was > 100 µM (inactive). For the same compound, the GI50 (DU-145) was > 100 µM (inactive) and the GI50 (MDA-MB-435) was > 100 µM (inactive).
